Measurements as given in the NIST ThermoML archive (doi:10.1016/j.jct.2007.09.007).

Test: xn = mol fraction of the nth substance listed
Details: 100 kPa, Liquid

C1COCCO1 [1,4-dioxane] + CC#N
mass density [kg/m3]
Details	288.15 K	293.15 K	298.15 K	303.15 K
x1 = 0.0046	789.4	784.08	778.69	773.26
x1 = 0.0101	791.73	786.38	780.98	775.56
x1 = 0.0249	797.92	792.61	787.21	781.78
x1 = 0.0336	801.42	796.07	790.67	785.24
x1 = 0.0497	808.04	802.72	797.32	791.89
x1 = 0.0627	813.27	807.95	802.55	797.13
x1 = 0.1106	831.43	826.1	820.71	815.28
x1 = 0.1643	850.48	845.16	839.75	834.33
x1 = 0.2127	866.78	861.44	856.05	850.62
x1 = 0.2853	889.43	884.08	878.67	873.24
x1 = 0.3355	904	898.64	893.23	887.8
x1 = 0.4341	930.27	924.89	919.46	914.02
x1 = 0.4807	941.65	936.29	930.86	925.4
x1 = 0.5277	952.67	947.29	941.85	936.38
x1 = 0.5828	964.93	959.51	954.06	948.58
x1 = 0.6385	976.54	971.14	965.66	960.16
x1 = 0.6845	985.67	980.25	974.76	969.25
x1 = 0.7278	993.97	988.54	983.03	977.5
x1 = 0.777	1002.84	997.35	991.82	986.28
x1 = 0.8181	1010.08	1004.61	999.06	993.5
x1 = 0.8703	1018.77	1013.28	1007.7	1002.12
x1 = 0.9145	1025.86	1020.33	1014.73	1009.11
x1 = 0.9604	1032.84	1027.29	1021.66	1016.03
x1 = 0.9652	1033.57	1027.98	1022.35	1016.71
x1 = 0.9757	1035.18	1029.58	1023.93	1018.3
x1 = 0.9817	1036.07	1030.46	1024.82	1019.17
x1 = 0.99	1037.29	1031.66	1025.99	1020.36
x1 = 0.9954	1038.08	1032.48	1026.83	1021.18

CC(C)OC(C)C [diisopropyl ether] + CC#N
mass density [kg/m3]
Details	288.15 K	293.15 K	298.15 K	303.15 K
x1 = 0.0072	786.61	781.29	775.9	770.47
x1 = 0.015	785.8	780.49	775.1	769.68
x1 = 0.0247	784.84	779.54	774.15	768.74
x1 = 0.0308	784.29	778.97	773.59	768.17
x1 = 0.0381	783.55	778.25	772.87	767.46
x1 = 0.0482	782.56	777.27	771.89	766.48
x1 = 0.0991	777.78	772.47	767.11	761.72
x1 = 0.1496	773.32	768.06	762.72	757.34
x1 = 0.2511	765.5	760.24	754.91	749.55
x1 = 0.3069	761.73	756.5	751.18	745.83
x1 = 0.3507	758.83	753.58	748.27	742.93
x1 = 0.4104	755.28	750.02	744.74	739.4
x1 = 0.4513	752.87	747.67	742.35	737.04
x1 = 0.5132	749.57	744.35	739.06	733.73
x1 = 0.56	747.13	741.91	736.63	731.3
x1 = 0.6429	743.32	738.15	732.87	727.55
x1 = 0.6938	741.1	735.9	730.64	725.33
x1 = 0.76	738.32	733.12	727.83	722.53
x1 = 0.8129	736.2	731.02	725.76	720.46
x1 = 0.8449	735	729.8	724.53	719.26
x1 = 0.904	732.62	727.46	722.22	716.94
x1 = 0.9509	730.9	725.75	720.52	715.25
x1 = 0.963	730.42	725.28	720.05	714.78
x1 = 0.9685	730.2	725.06	719.83	714.56
x1 = 0.9815	729.68	724.52	719.32	714.06
x1 = 0.9887	729.4	724.27	719.05	713.79
x1 = 0.9945	729.15	724.02	718.81	713.55

C1CCOC1 [tetrahydrofuran] + CC#N
mass density [kg/m3]
Details	288.15 K	293.15 K	298.15 K	303.15 K
x1 = 0.0053	788.34	783	777.57	772.17
x1 = 0.0104	789.18	783.84	778.44	773.01
x1 = 0.0197	790.72	785.35	779.94	774.52
x1 = 0.0294	792.28	786.96	781.56	776.11
x1 = 0.0389	793.83	788.5	783.1	777.67
x1 = 0.0993	803.2	797.8	792.41	786.97
x1 = 0.1598	812.11	806.78	801.3	795.84
x1 = 0.1978	817.43	812.02	806.63	801.18
x1 = 0.2441	823.65	818.27	812.84	807.39
x1 = 0.2845	828.9	823.5	818.1	812.64
x1 = 0.3445	836.2	830.81	825.36	819.91
x1 = 0.4022	842.91	837.51	832.02	826.57
x1 = 0.4545	848.62	843.24	837.79	832.34
x1 = 0.4995	853.35	847.94	842.49	837.08
x1 = 0.5298	856.4	851.03	845.55	840.1
x1 = 0.5552	858.94	853.51	848.07	842.6
x1 = 0.6054	863.65	858.25	852.78	847.29
x1 = 0.6405	866.78	861.42	855.96	850.47
x1 = 0.6603	868.52	863.15	857.69	852.2
x1 = 0.6976	871.74	866.29	860.83	855.34
x1 = 0.747	875.76	870.32	864.86	859.36
x1 = 0.8003	879.84	874.36	868.9	863.41
x1 = 0.8179	881.06	875.68	870.22	864.73
x1 = 0.8537	883.67	878.23	872.77	867.28
x1 = 0.8975	886.63	881.19	875.76	870.25
x1 = 0.9502	890	884.59	879.13	873.61
x1 = 0.9671	890.93	885.55	880.09	874.59
x1 = 0.9745	891.4	886.03	880.56	875.07
x1 = 0.9854	892.01	886.65	881.17	875.7
x1 = 0.9877	892.14	886.76	881.29	875.8
x1 = 0.994	892.51	887.12	881.66	876.13
